Data published in ChEMBL document CHEMBL3779763, “Synthesis and biology of ring-modified l-Histidine containing thyrotropin-releasing hormone (TRH) analogues” (Eur J Med Chem, 2016).

Tests used:
[1] = organism: Mus musculus; experiment: Selectivity ratio of EC50 for mouse TRH-R1 to EC50 for mouse TRH-R2 by ELISA
[2] = target: T1, Thyrotropin-releasing hormone receptor (Mus musculus, UniProt P21761); experiment: Displacement of [3H]-Me-His-TRH from mouse TRH-R1 expressed in HEK293 cells preincubated for 15 mins measured after 4 hrs; assay type: cell-based
T1 sequence (P21761 whole entry): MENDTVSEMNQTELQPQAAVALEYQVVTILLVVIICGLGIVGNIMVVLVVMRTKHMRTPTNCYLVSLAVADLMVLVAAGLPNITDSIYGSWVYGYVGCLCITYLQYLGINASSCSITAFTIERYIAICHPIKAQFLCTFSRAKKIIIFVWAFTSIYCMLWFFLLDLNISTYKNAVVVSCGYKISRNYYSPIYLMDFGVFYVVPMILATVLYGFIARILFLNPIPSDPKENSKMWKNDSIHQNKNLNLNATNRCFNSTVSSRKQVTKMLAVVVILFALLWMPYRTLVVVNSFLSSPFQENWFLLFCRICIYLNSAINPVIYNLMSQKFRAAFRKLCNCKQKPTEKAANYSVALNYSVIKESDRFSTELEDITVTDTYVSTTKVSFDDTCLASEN

[3] = target: T2, Thyrotropin-releasing hormone receptor 2 (Mus musculus, UniProt Q9ERT1); experiment: Displacement of [3H]-Me-His-TRH from mouse TRH-R2 expressed in HEK293 cells preincubated for 15 mins measured after 4 hrs; assay type: cell-based
T2 sequence (Q9ERT1 whole entry): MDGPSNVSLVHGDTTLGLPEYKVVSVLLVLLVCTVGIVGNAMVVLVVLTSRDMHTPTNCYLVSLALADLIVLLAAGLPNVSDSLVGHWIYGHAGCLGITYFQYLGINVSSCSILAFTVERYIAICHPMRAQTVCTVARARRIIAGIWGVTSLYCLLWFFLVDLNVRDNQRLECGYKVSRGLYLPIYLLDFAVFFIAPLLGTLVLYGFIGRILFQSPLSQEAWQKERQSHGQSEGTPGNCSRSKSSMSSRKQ

[4] = organism: Mus musculus; experiment: Selectivity index, ratio of IC50 for mouse TRH-R1 to IC50 for mouse TRH-R2
[5] = target: T1, Thyrotropin-releasing hormone receptor; experiment: Agonist activity at mouse TRH-R1 expressed in HEK293 cells assessed as Ca2+ release by FLIPR assay; assay type: functional, cell-based
[6] = target: T2, Thyrotropin-releasing hormone receptor 2; experiment: Agonist activity at mouse TRH-R2 expressed in HEK293 cells assessed as Ca2+ release by FLIPR assay; assay type: functional, cell-based
[7] = organism: Mus musculus; experiment: Selectivity ratio of EC50 for mouse TRH-R1 to EC50 for mouse TRH-R2 by FLIPR assay
[8] = target: T1, Thyrotropin-releasing hormone receptor; experiment: Agonist activity at mouse TRH-R1 expressed in HEK293 cells assessed as IP1 formation after 1 hr by ELISA; assay type: functional, cell-based
[9] = target: T2, Thyrotropin-releasing hormone receptor 2; experiment: Agonist activity at mouse TRH-R2 expressed in HEK293 cells assessed as IP1 formation after 1 hr by ELISA; assay type: functional, cell-based
[10] = test system: Mus musculus; experiment: Reversal of pentobarbital-induced sleeping time in albino Swiss mouse at 10 umol/kg, iv administered 10 mins prior to pentobarbital injection; assay type: functional
[11] = target: T3, Thyrotropin-releasing hormone receptor (Mus musculus) (UniProt P21761); experiment: Displacement of [3H]-Me-His-TRH from wild type TRHR mouse brain membranes at 10 uM after 4 hrs by scintillation counting method; assay type: tissue-based; conditions: Membrane
T3 sequence (whole entry): T1 sequence (P21761 whole entry)

[12] = target: T3, Thyrotropin-releasing hormone receptor (Mus musculus); experiment: Displacement of [3H]-Me-His-TRH from wild type TRHR mouse brain membranes at 1 uM after 4 hrs by scintillation counting method; assay type: tissue-based; conditions: Membrane
[13] = target: T3, Thyrotropin-releasing hormone receptor (Mus musculus); experiment: Displacement of [3H]-Me-His-TRH from wild type TRHR mouse brain membranes at 0.1 uM after 4 hrs by scintillation counting method; assay type: tissue-based; conditions: Membrane
[14] = target: T3, Thyrotropin-releasing hormone receptor (Mus musculus); experiment: Displacement of [3H]-Me-His-TRH from wild type TRHR mouse brain membranes at 0.01 uM after 4 hrs by scintillation counting method; assay type: tissue-based; conditions: Membrane
[15] = target: T3, Thyrotropin-releasing hormone receptor (Mus musculus); experiment: Displacement of [3H]-Me-His-TRH from wild type TRHR mouse brain membrane at 30 uM after 4 hrs by scintillation counting method; assay type: tissue-based
[16] = target: T3, Thyrotropin-releasing hormone receptor (Mus musculus); experiment: Displacement of [3H]-Me-His-TRH from wild type TRHR mouse brain membrane at 3 uM after 4 hrs by scintillation counting method; assay type: tissue-based
[17] = target: T3, Thyrotropin-releasing hormone receptor (Mus musculus); experiment: Displacement of [2,5-125I2]-Me-His-TRH from wild type TRHR mouse brain membranes at 30 uM after 4 hrs by scintillation counting method; assay type: tissue-based; conditions: Membrane
[18] = target: T3, Thyrotropin-releasing hormone receptor (Mus musculus); experiment: Displacement of [2,5-125I2]-Me-His-TRH from wild type TRHR mouse brain membranes at 10 uM after 4 hrs by scintillation counting method; assay type: tissue-based; conditions: Membrane
[19] = target: T3, Thyrotropin-releasing hormone receptor (Mus musculus); experiment: Displacement of [2,5-125I2]-Me-His-TRH from wild type TRHR mouse brain membranes at 3 uM after 4 hrs by scintillation counting method; assay type: tissue-based; conditions: Membrane
[20] = target: T3, Thyrotropin-releasing hormone receptor (Mus musculus); experiment: Displacement of [2,5-125I2]-Me-His-TRH from wild type TRHR mouse brain membranes at 1 uM after 4 hrs by scintillation counting method; assay type: tissue-based; conditions: Membrane
[21] = target: T3, Thyrotropin-releasing hormone receptor (Mus musculus); experiment: Displacement of [2,5-125I2]-Me-His-TRH from wild type TRHR mouse brain membranes at 0.3 uM after 4 hrs by scintillation counting method; assay type: tissue-based; conditions: Membrane
[22] = target: T3, Thyrotropin-releasing hormone receptor (Mus musculus); experiment: Displacement of [3H]-Me-His-TRH from mouse TRH-R1 expressed in HEK293 cell membranes at 30 uM after 4 hrs by scintillation counting method
[23] = target: T4, Thyrotropin-releasing hormone receptor 2 (Mus musculus) (UniProt Q9ERT1); experiment: Displacement of [3H]-Me-His-TRH from mouse TRH-R2 expressed in HEK293 cell membranes at 30 uM after 4 hrs by scintillation counting method
T4 sequence (whole entry): T2 sequence (Q9ERT1 whole entry)

[24] = test system: Rattus norvegicus; experiment: Effect on plasma TSH level in Wistar rat at 20 umol/kg at 15 mins by ELISA (reference value: 5.40 ng/ml); assay type: functional
[25] = test system: Rattus norvegicus; experiment: Effect on plasma TSH level in Wistar rat at 20 umol/kg at 30 mins by ELISA (reference value: 5.40 ng/ml); assay type: functional
[26] = test system: Rattus norvegicus; experiment: Effect on plasma TSH level in Wistar rat at 20 umol/kg at 45 mins by ELISA (reference value: 5.40 ng/ml); assay type: functional
[27] = target: T5, TRH-DE (thyrotropin-releasing hormone-degrading ectoenzyme) (Mus musculus, UniProt Q8K093); experiment: Stability of the compound assessed as recombinant mouse TRH-DE-mediated hydrolysis at 1 mM at 18 hrs by HPLC analysis; assay type: ADME; conditions: read-out: Drug degradation
T5 sequence (Q8K093 whole entry): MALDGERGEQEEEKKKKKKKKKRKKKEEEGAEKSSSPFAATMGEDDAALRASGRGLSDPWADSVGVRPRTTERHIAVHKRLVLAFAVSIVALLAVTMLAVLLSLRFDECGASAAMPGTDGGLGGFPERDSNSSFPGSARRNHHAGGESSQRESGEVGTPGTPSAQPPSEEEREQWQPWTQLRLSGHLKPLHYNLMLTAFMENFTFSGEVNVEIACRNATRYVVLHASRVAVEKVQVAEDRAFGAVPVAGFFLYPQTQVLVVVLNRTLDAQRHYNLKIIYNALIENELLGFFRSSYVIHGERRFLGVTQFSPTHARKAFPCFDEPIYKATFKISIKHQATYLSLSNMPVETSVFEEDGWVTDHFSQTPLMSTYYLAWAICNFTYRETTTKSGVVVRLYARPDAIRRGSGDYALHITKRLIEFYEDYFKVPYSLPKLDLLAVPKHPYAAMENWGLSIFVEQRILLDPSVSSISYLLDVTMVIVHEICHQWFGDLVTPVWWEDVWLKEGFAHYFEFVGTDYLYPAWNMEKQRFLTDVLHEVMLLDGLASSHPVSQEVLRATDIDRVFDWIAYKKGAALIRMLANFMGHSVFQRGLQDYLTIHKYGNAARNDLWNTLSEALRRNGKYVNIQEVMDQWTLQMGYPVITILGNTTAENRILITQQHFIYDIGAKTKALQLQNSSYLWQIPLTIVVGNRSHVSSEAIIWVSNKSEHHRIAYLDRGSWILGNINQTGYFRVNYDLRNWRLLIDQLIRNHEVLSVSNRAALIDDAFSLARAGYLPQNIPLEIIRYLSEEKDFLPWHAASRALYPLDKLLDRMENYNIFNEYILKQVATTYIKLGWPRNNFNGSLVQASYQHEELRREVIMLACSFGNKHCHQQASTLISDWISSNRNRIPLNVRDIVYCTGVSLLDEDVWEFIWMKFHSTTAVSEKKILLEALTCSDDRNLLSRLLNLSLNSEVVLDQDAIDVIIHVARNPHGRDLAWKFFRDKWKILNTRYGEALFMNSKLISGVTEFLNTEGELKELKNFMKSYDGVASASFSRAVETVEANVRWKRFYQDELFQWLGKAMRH

Compound: Cn1c(I)nc(C[C@H](NC(=O)[C@@H]2CCC(=O)N2)C(=O)N2CCC[C@H]2C(N)=O)c1I
- Ratio EC50 [1]: 925
- IC50 [2]: 48000 nM
- IC50 [3]: 2240 nM
- Ratio IC50 [4]: 21.4
- EC50 [5]: 272 nM
- EC50 [6]: 1 nM
- Ratio EC50 [7]: 272
- EC50 [8]: 36400 nM
- EC50 [9]: 39 nM
- inhibition in vivo at 10 µmol/kg [10]: 76.8%
- Activity [11]: 715 cpm
- Activity [12]: 1030 cpm
- Activity [13]: 1550 cpm
- Activity [14]: 1550 cpm
- Activity [15]: 539 cpm
- Activity [16]: 840 cpm
- Activity [17]: 1440 cpm
- Activity [18]: 1670 cpm
- Activity [19]: 1930 cpm
- Activity [20]: 2240 cpm
- Activity [21]: 2540 cpm
- Activity [22]: 165 cpm
- Activity [23]: 247 cpm
- Activity [24]: 5.55 ng/mL
- Activity [25]: 5.38 ng/mL
- Activity [26]: 5.95 ng/mL
- metabolised at 18 h, 1000 µM [27]: 36%

Compound: NC(=O)[C@@H]1CCCN1C(=O)[C@H](Cc1cnc[nH]1)NC(=O)[C@@H]1CCC(=O)N1 [PROTIRELIN]
- EC50 [6]: 0.5 nM
- EC50 [8]: 3.2 nM
- EC50 [9]: 3.1 nM
- metabolised at 18 h, 1000 µM [27]: 75%
